Measured values: US5622933A, “Multiple branch peptide constructions for use against HIV” (priority 1993, dated 1997)
“Also recorded” adds a separate entry of the source. Ends that are not written are not given here.

Tests used:
[1] = tested on: Peripheral blood lymphocytes (PBL); test: PBL antigen and mitogen induced proliferation ([3H]thymidine incorporation); type: cell-based, human; conditions: MBPCs 5×10^-6 M
Procedure: Peripheral blood lymphocytes (PBL) from 3 healthy HIV sero-negative donors were isolated from heparinized blood by the Ficoll-Hypaque technique. The culture medium was RPMI 1640 supplemented with 1% glutamine, 1% antibiotics and 10% heat inactivated fetal calf serum. Cells (10^5) were incubated in the presence of MBPCs (5×10^-6 M) with or without antigen (candidine, PPD) or mitogen (PHA). Antigen or mitogen treated cells were pulsed for eight hours with […] of [3H] thymidine. Then cells were harvested and [3H] thymidine incorporation in DNA was counted. […]

8E5 cells = test: Toxicity in the cell fusion test (MTT assay or trypan blue exclusion); type: cell-based; conditions: 5 × 10^-5 M; listed as [RKSIHIGPGRAFYT]4 -MLC

## (RKSIHIGPGRAFYT)4 -(K)2 -K-βA-OH (also: four copies on lysine core (K)2-K-βA-OH) [MBPC.5, tetradecapeptide MBPC]
[1]; Donor 1, Cand1
  [3H] Thymidine Incorporation: 80000 cpm
[1]; Donor 1, Cand2
  [3H] Thymidine Incorporation: 85000 cpm
[1]; Donor 1, PPD1
  [3H] Thymidine Incorporation: 1300 cpm
[1]; Donor 1, PPD2
  [3H] Thymidine Incorporation: 2100 cpm
[1]; Donor 2, Cand1
  [3H] Thymidine Incorporation: 15000 cpm
[1]; Donor 2, Cand2
  [3H] Thymidine Incorporation: 9000 cpm
[1]; Donor 2, PHA1
  [3H] Thymidine Incorporation: 115000 cpm
[1]; Donor 2, PHA2
  [3H] Thymidine Incorporation: 111000 cpm
[1]; Donor 2, PPD1
  [3H] Thymidine Incorporation: 24000 cpm
[1]; Donor 2, PPD2
  [3H] Thymidine Incorporation: 26000 cpm
[1]; Donor 3, Cand1
  [3H] Thymidine Incorporation: 3700 cpm
[1]; Donor 3, Cand2
  [3H] Thymidine Incorporation: 1100 cpm
[1]; Donor 3, PHA1
  [3H] Thymidine Incorporation: 228000 cpm
[1]; Donor 3, PHA2
  [3H] Thymidine Incorporation: 188000 cpm
[1]; Donor 3, PPD1
  [3H] Thymidine Incorporation: 4000 cpm
[1]; Donor 3, PPD2
  [3H] Thymidine Incorporation: 2400 cpm
8E5 cells
  Toxicity: Toxic; also recorded: induced some toxicity
